We go through nine compounds from patent publication US8114862B2, “TGR5 modulators and methods of use thereof” (Intercept Pharmaceuticals, Inc., priority 2008, dated 2012).

Where two headings read alike, the source gives them in different places. Marks after values point to notes of the source that are not given here.

Data set [1] deals with T1, TGR5 (Homo sapiens, UniProt Q8TDU6).
T1 sequence (Q8TDU6 1-330): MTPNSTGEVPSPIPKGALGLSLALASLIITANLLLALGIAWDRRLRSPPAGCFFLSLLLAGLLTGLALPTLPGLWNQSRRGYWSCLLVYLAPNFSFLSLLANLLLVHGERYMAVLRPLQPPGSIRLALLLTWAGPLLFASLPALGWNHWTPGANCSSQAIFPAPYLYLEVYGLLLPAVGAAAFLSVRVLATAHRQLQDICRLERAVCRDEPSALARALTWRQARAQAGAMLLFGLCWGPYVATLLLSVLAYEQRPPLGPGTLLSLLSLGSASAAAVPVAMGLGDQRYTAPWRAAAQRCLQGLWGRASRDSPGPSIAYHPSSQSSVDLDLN
The data set can be described thus: CRE-driven luciferase reporter assay in TGR5-transfected CHO cells. Also noted: host or cells: CHO cells. It is filed as cell-based.

Data set [2] addresses T2, hFXR (Homo sapiens, UniProt Q96RI1).
T2 construct: expressed in transfected cells; host or cells: COS1 cells
The data set is described as follows: FXR luciferase reporter assay in COS1 cells. It is filed as cell-based.

Data set [3] concerns the target human FXR (Homo sapiens, UniProt Q96RI1). The data set can be described thus: FRET recruitment of SRC-1 peptide to human FXR, cell-free ELiSA.
Data set [4] addresses T1, TGR5. The data set can be described thus: TGR5 receptor in vitro assay (Table 1). It is filed as cell-based.
The target of data set [5] is T1, TGR5. The data set is described as follows: Direct comparison 6-ethyl vs 6-methyl 23-methyl cholic acid: TGR5. It is filed as cell-based.
For data set [6], the target named is T3, FXR (Homo sapiens, UniProt Q96RI1).
T3 sequence (Q96RI1 262-486 limits assumed): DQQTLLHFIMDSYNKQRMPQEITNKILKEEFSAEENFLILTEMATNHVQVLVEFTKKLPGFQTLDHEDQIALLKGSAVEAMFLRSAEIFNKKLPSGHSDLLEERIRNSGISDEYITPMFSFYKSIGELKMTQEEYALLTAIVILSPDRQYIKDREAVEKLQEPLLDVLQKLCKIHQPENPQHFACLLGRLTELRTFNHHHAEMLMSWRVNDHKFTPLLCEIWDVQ
The data set can be described thus: Direct comparison 6-ethyl vs 6-methyl 23-methyl cholic acid: FXR. The format is biochemical.

Data set [7] can be described thus: Biliary secretion and metabolism in bile fistula rat, id and iv infusion. The note with it: rat, in vivo, 1 μmol/kg/min.
Data set [8] can be described thus: Choleretic effect (bile flow) in bile fistula rat, id and iv infusion. It is filed as in vivo. To be noted: 1 (μmol/min)/kg bw over 1 h.
The nature of data set [9]: Previous study of OA tolerability in animals. The format is in vivo. On the procedure: Therefore, OA was administered at the dose of 50 mg/kg/d in this study.
Data set [10] can be described thus: in vitro. To be noted: human.
For data set [11] the following is noted: values from literature; cited from earlier work.
Data set [12] concerns the target bovine serum albumin (Bos taurus, UniProt P02769). To be noted: values from literature; cited from earlier work.
For data set [13] the following is noted: values from literature; cited from earlier work. This is another data set of the same source.

Sequence of bovine serum albumin (P02769 25-607): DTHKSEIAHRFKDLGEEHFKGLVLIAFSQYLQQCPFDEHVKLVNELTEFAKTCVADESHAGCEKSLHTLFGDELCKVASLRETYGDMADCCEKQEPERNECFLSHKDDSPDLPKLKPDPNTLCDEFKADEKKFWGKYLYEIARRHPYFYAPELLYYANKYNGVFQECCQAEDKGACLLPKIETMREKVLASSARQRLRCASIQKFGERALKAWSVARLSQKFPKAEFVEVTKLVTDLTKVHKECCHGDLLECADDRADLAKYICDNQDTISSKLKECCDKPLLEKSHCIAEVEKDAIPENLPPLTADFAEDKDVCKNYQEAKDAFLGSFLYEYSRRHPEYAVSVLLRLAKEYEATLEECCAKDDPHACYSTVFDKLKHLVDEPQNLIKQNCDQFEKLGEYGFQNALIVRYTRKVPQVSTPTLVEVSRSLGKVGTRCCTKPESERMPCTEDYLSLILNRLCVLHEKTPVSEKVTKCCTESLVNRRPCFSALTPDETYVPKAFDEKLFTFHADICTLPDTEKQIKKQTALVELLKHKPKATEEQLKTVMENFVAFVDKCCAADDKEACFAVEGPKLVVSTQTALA
Sequence of human FXR (Q96RI1 whole entry): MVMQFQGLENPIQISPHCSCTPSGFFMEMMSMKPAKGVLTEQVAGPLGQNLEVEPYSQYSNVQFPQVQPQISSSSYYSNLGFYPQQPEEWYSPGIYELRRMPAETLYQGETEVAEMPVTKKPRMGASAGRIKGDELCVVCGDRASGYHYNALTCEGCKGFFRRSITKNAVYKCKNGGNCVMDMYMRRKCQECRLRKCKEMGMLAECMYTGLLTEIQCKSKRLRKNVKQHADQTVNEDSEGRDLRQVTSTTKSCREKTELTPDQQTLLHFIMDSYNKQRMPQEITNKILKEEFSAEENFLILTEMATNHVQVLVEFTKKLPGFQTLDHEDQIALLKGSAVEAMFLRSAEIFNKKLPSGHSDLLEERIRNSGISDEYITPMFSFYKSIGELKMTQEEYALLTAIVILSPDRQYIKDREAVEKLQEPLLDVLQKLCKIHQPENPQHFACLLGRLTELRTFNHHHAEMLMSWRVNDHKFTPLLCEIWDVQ
T2 sequence (Q96RI1 whole entry): as above
T2 sequence (P28700 whole entry partner): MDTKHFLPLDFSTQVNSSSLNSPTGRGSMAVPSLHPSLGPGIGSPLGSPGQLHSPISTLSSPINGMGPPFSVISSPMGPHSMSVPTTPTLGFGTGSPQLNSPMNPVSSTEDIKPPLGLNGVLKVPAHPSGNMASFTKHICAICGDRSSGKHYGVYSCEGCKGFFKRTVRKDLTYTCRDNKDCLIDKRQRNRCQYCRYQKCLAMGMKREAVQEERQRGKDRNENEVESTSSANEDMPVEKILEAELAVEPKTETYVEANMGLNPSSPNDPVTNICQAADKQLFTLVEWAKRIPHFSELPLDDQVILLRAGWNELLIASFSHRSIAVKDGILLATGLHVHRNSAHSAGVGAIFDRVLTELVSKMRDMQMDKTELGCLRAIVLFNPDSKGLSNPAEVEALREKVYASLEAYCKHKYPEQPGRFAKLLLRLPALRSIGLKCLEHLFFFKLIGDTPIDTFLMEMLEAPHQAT

On to `C[C@H]1[C@@H](O)C2C3CC[C@H]([C@H](C)C[C@H](C)C(=O)O)[C@@]3(C)[C@@H](O)CC2[C@@]2(C)CC[C@@H](O)C[C@@H]12` (stereo partly drawn), for which, in data set [1], the “EC50 ratio (TGR5/FXR)” value is reported as 0.035. In data set [1] (% of activity vs. 10 μM LCA), the “TGR5 Efficacy” value came to 75.6%. In addition, the EC50 is 0.8 µM in data set [1] (Table 3) and 22.8 µM in [2] (Table 3). Further, in data set [2] (% of activity vs. 10 μM 6ECDCA), the “FXR Efficacy” value amounted to 0.76%.

With `C[C@H]1[C@@H](O)C2C3CC[C@H]([C@H](C)CCC(=O)O)[C@@]3(C)CCC2[C@@]2(C)CC[C@@H](O)C[C@@H]12` (stereo partly drawn) [Compound 6α-MeCDCA], in data set [3], the EC50 is 0.21 µM and the “FXR Data Efficacy” value amounted to 148%. Besides, in data set [4], a half-maximal response (EC50) required 0.37 µM and the “TGR5 Data Efficacy” value was found to be 119%.

With `C[C@H]1[C@@H](O)[C@@H]2[C@H](C[C@H](O)[C@]3(C)[C@@H]([C@H](C)C[C@H](C)C(=O)O)CC[C@@H]23)[C@@]2(C)CC[C@@H](O)C[C@@H]12` [Ih3, 23(S)-Methyl-6α-methyl-3α,7α,12α-trihydroxy-5β-cholan-24-oic acid], the EC50 in [5] (first experiment, read-out: TGR5 I exp EC50) was found to be 1.7 µM; in [5] (second experiment, read-out: TGR5 II exp EC50) it was 3 µM; in data set [6] (first experiment, read-out: FXR I exp EC50), 10 µM; in data set [6] (second experiment, read-out: FXR II exp EC50) it was 7.8 µM.

For `CC[C@H]1[C@@H](O)[C@@H]2[C@H](C[C@H](O)[C@]3(C)[C@@H]([C@H](C)C[C@@H](C)C(=O)O)CC[C@@H]23)[C@@]2(C)CC[C@@H](O)C[C@@H]12` [Ii3e, 6α-ethyl-(23R)-methyl-3α,7α,12α trihydroxy-5β-cholan-24-oic acid], the values for the fraction unbound at 4 h in [7] and in data set [7] (iv) were 0.68 ± 0.08 and 0.65, respectively. Further, the figures for the “SV0: maximum bile secretion rate” value in [8] (id infusion) and in [8] (iv infusion) were 81 ± 8 (μL/min)/kg bw and “(90 ± 5) (μL/min)/kg bw”, respectively.

Consider `CC1(C)CC[C@]2(C(=O)O)CC[C@]3(C)C(=CC[C@@H]4[C@@]5(C)CC[C@H](O)C(C)(C)[C@@H]5CC[C@]43C)[C@@H]2C1` [OA, oleanolic acid], for which the toxicity result in data set [9] (100 mg/kg/day) was “some signs of toxicity”. Also, the tolerability result in [9] (lower dose) was “well tolerated”.

`CN[C@@H]1C[C@H]2O[C@@](C)([C@@H]1OC)n1c3ccccc3c3c4c(c5c6ccccc6n2c5c31)C(=O)NC4` [Staurosporine] had an EC50 at 4 h in [10] of 15 µM.

Turning to `C[C@H](CCC(=O)NCCS(=O)(=O)O)[C@H]1CC[C@H]2[C@@H]3[C@H](O)C[C@@H]4C[C@H](O)CC[C@]4(C)[C@H]3CC[C@]12C` [TCDCA], in data set [11], the “CMC […] Na+” value is on record as 3.0* mM. Moreover, the “Albumin Binding” value in [12] was 70* %. Besides, the “LogPA- (1-octanol-water partition coefficient, ionized species)” value in data set [13] is reported as 0.9*.

Turning to `C[C@H](CCC(=O)NCCS(=O)(=O)O)[C@H]1CC[C@H]2[C@@H]3[C@@H](O)C[C@@H]4C[C@H](O)CC[C@]4(C)[C@H]3CC[C@]12C` [TUDCA], the “CMC […] Na+” value in data set [11] is 2.2* mM. The “Albumin Binding” value in [12] is 67* %. In addition, in data set [13], the “LogPA- (1-octanol-water partition coefficient, ionized species)” value is 1.1*.

Consider `CC/C(=C(\c1ccccc1)c1ccc(OCCN(C)C)cc1)c1ccccc1` [Tamoxifen], for which, in data set [10] (HepG2 cells), a half-maximal response (EC50 at 4 h) required 47 µM.
